# Patent publication US20240293360A1 (priority 2021, published 2024)
# Tested on: cancer cell lines HCT-116, SCC VII, and A549
# Assay type: cell-based
smiles,measurement,value
"O=C(CBr)N1CC([N+](=O)[O-])([N+](=O)[O-])C1 [Sample 2, 2-bromo-1-(3,3-dinitroazetidin-1-yl)ethanone]","suppressing viability of cancer cell lines, compared to impact sensitive form of ABDNAZ (samples 1 and 3)",more effective
